Measured values: PubChem BioAssay AID194 (DTP/NCI, 2004)
“And” between values parts separate entries of the source, which are not always exact repeats. Identical values can stand only once. Results filed as inconclusive are left out.

Test system: BDF1 mice, B16 melanoma s.c., survival/tumor T/C
Test: NCI In Vivo Anticancer Drug Screen. Data for tumor model B16 Melanoma (subcutaneous) in B6D2F1 (BDF1) mice
Protocol: The antitumor activity of compounds was measured in mice bearing transplantable tumors. Survival or tumor size were measured and the results are expressed as the measurement made in the treated group (T) divided by the measurement made in the vehicle treated control group (C). The tumor model used in this assay is B16 Melanoma (subcutaneous) in B6D2F1 (BDF1) mice

CCC1=C(C[C@H]2NCCc3cc(OC)c(OC)cc32)C[C@H]2c3cc(OC)c(OC)cc3CCN2C1
T/C (endpoint: median survival time, dose: 2.0 mg/kg/injection, schedule: Q01DX005 (ip), vehicle: saline, higher = longer survival): 87 % of control
T/C (endpoint: median survival time, dose: 4.0 mg/kg/injection, schedule: Q01DX005 (ip), vehicle: saline, higher = longer survival): 93 % of control
T/C (endpoint: median survival time, dose: 8.0 mg/kg/injection, schedule: Q01DX005 (ip), vehicle: saline, higher = longer survival): 110 % of control
T/C (endpoint: median survival time, dose: 16.0 mg/kg/injection, schedule: Q01DX005 (ip), vehicle: saline, higher = longer survival): 114 % of control

CC1(C)N=C(N)N=C(N)N1c1ccc(OCCOc2ccc(S(=O)(=O)F)cc2)c(Cl)c1
T/C (endpoint: median survival time, dose: 12.5 mg/kg/injection, schedule: Q04DX003 (ip), vehicle: saline, higher = longer survival): 104 % of control
T/C (endpoint: median survival time, dose: 25.0 mg/kg/injection, schedule: Q04DX003 (ip), vehicle: saline, higher = longer survival): 104 % of control
T/C (endpoint: median survival time, dose: 100.0 mg/kg/injection, schedule: Q04DX003 (ip), vehicle: saline, higher = longer survival): 109 % of control

CCCCC(=O)OCC(=O)[C@]1(O)Cc2c(O)c3c(c(O)c2[C@@H](OC2CC(NC(=O)C(F)(F)F)C(O)C(C)O2)C1)C(=O)c1c(OC)cccc1C3=O (stereo partly specified)
T/C (endpoint: median survival time, dose: 9.0 mg/kg/injection, schedule: Q01DX008 (ip), vehicle: distilled water + Tween-80, higher = longer survival): 104 % of control
T/C (endpoint: median survival time, dose: 13.0 mg/kg/injection, schedule: Q01DX008 (ip), vehicle: distilled water + Tween-80, higher = longer survival): 118 % of control
T/C (endpoint: median survival time, dose: 20.0 mg/kg/injection, schedule: Q01DX008 (ip), vehicle: distilled water + Tween-80, higher = longer survival): 110 % of control
T/C (endpoint: median survival time, dose: 30.0 mg/kg/injection, schedule: Q01DX008 (ip), vehicle: distilled water + Tween-80, higher = longer survival): 124 % of control

COc1cc([C@@H]2c3cc4c(cc3[C@@H](OC3OC5COC(C)OC5C(O)C3O)[C@H]3COC(=O)[C@H]23)OCO4)cc(OC)c1O (stereo partly specified)
T/C (endpoint: median survival time, dose: 2.0 mg/kg/injection, schedule: Q01DX009 (ip), vehicle: saline, higher = longer survival): 169 % of control
T/C (endpoint: median survival time, dose: 3.0 mg/kg/injection, schedule: Q01DX009 (ip), vehicle: saline, higher = longer survival): 117 % of control
T/C (endpoint: median survival time, dose: 34.0 mg/kg/injection, schedule: Q01DX001 (ip), vehicle: saline, higher = longer survival): 117 % of control
T/C (endpoint: median survival time, dose: 40.0 mg/kg/injection, schedule: Q04DX003 (ip), vehicle: saline, higher = longer survival): 156 % of control
T/C (endpoint: median survival time, dose: 50.0 mg/kg/injection, schedule: Q01DX001 (ip), vehicle: saline, higher = longer survival): 117 % of control

NNC(=O)c1ccncc1
T/C (endpoint: median survival time, dose: 64.0 mg/kg/injection, schedule: Q01DX009 (ip), vehicle: saline, higher = longer survival): 116 % of control
T/C (endpoint: median survival time, dose: 128.0 mg/kg/injection, schedule: Q01DX009 (ip), vehicle: saline, higher = longer survival): 88 % of control

CC(NSc1ccccc1[N+](=O)[O-])C(=O)O (stereo unspecified)
T/C (endpoint: median survival time, dose: 12.5 mg/kg/injection, schedule: Q01DX009 (ip), vehicle: saline with Tween-80, higher = longer survival): 109 % of control
T/C (endpoint: median survival time, dose: 25.0 mg/kg/injection, schedule: Q01DX009 (ip), vehicle: saline with Tween-80, higher = longer survival): 106 % of control
T/C (endpoint: median survival time, dose: 50.0 mg/kg/injection, schedule: Q01DX009 (ip), vehicle: saline with Tween-80, higher = longer survival): 89 % of control
T/C (endpoint: median survival time, dose: 100.0 mg/kg/injection, schedule: Q01DX009 (ip), vehicle: saline with Tween-80, higher = longer survival): 122 % of control

c1ccc([As+](c2ccccc2)(c2ccccc2)c2ccccc2)cc1
T/C (endpoint: median survival time, dose: 1.87 mg/kg/injection, schedule: Q01DX009 (ip), vehicle: Klucel (hydroxypropylcellulose) (HPC), higher = longer survival): 95 % of control
T/C (endpoint: median survival time, dose: 3.75 mg/kg/injection, schedule: Q01DX009 (ip), vehicle: Klucel (hydroxypropylcellulose) (HPC), higher = longer survival): 109 % of control

C=CCN1/C(=C/C=C\c2sc3ccccc3[n+]2CC=C)Sc2ccccc21
T/C (endpoint: median survival time, dose: 125.0 micrograms/kg/injection, schedule: Q01DX009 (ip), vehicle: suspension in saline, higher = longer survival): 121 % of control

O=P1(N(CCCl)CCCl)NCCCO1 (stereo unspecified)
T/C (endpoint: median survival time, dose: 15.0 mg/kg/injection, schedule: Q04DX003 (ip), vehicle: saline, higher = longer survival): 111 % of control
T/C (endpoint: median survival time, dose: 30.0 mg/kg/injection, schedule: Q04DX003 (ip), vehicle: saline, higher = longer survival): 123 % of control
T/C (endpoint: median survival time, dose: 60.0 mg/kg/injection, schedule: Q04DX003 (ip), vehicle: saline, higher = longer survival): 171 % of control
T/C (endpoint: median survival time, dose: 120.0 mg/kg/injection, schedule: Q04DX003 (ip), vehicle: saline, higher = longer survival): 193 % of control
T/C (endpoint: median survival time, dose: 200.0 mg/kg/injection, schedule: Q01DX001 (ip), vehicle: saline, higher = longer survival): 158 % of control
T/C (endpoint: median tumor weight (est.), dose: 50.0 mg/kg/injection, schedule: Q01DX009 (ip), vehicle: saline, higher = larger tumour): 19 % of control and 40 % of control
T/C (endpoint: median tumor weight (est.), dose: 100.0 mg/kg/injection, schedule: Q01DX009 (ip), vehicle: saline, higher = larger tumour): 19 % of control

O=P1(NCCCl)OCCCN1CCCl (stereo unspecified)
T/C (endpoint: median survival time, dose: 300.0 mg/kg/injection, schedule: Q01DX001 (ip), vehicle: saline, higher = longer survival): 154 % of control
T/C (endpoint: median survival time, dose: 460.0 mg/kg/injection, schedule: Q01DX001 (ip), vehicle: saline, higher = longer survival): 150 % of control

O=[N+]([O-])c1ccc(/C=N/c2ncc(Br)s2)o1
T/C (endpoint: median survival time, dose: 1.56 mg/kg/injection, schedule: Q01DX009 (ip), vehicle: Klucel (hydroxypropylcellulose) (HPC), higher = longer survival): 123 % of control
T/C (endpoint: median survival time, dose: 3.12 mg/kg/injection, schedule: Q01DX009 (ip), vehicle: Klucel (hydroxypropylcellulose) (HPC), higher = longer survival): 92 % of control
T/C (endpoint: median survival time, dose: 3.13 mg/kg/injection, schedule: Q01DX009 (ip), vehicle: Klucel (hydroxypropylcellulose) (HPC), higher = longer survival): 121 % of control
T/C (endpoint: median survival time, dose: 6.25 mg/kg/injection, schedule: Q01DX009 (ip), vehicle: Klucel (hydroxypropylcellulose) (HPC), higher = longer survival): 110 % of control and 111 % of control
T/C (endpoint: median survival time, dose: 12.5 mg/kg/injection, schedule: Q01DX009 (ip), vehicle: Klucel (hydroxypropylcellulose) (HPC), higher = longer survival): 114 % of control

CN(C)c1nc(N(C)C)nc(N(C)C)n1
T/C (endpoint: median survival time, dose: 20.0 mg/kg/injection, schedule: Q01DX009 (ip), vehicle: Klucel (hydroxypropylcellulose) (HPC), higher = longer survival): 115 % of control
T/C (endpoint: median survival time, dose: 40.0 mg/kg/injection, schedule: Q01DX009 (ip), vehicle: Klucel (hydroxypropylcellulose) (HPC), higher = longer survival): 118 % of control
T/C (endpoint: median survival time, dose: 80.0 mg/kg/injection, schedule: Q01DX009 (ip), vehicle: Klucel (hydroxypropylcellulose) (HPC), higher = longer survival): 111 % of control
T/C (endpoint: median survival time, dose: 160.0 mg/kg/injection, schedule: Q01DX009 (ip), vehicle: Klucel (hydroxypropylcellulose) (HPC), higher = longer survival): 115 % of control

CC(c1ccccc1)N1C(=O)CSC1=S (stereo unspecified)
T/C (endpoint: median survival time, dose: 400.0 mg/kg/injection, schedule: Q01DX009 (ip), vehicle: Klucel (hydroxypropylcellulose) (HPC), higher = longer survival): 89 % of control

COC(=O)C(N)CCCCNc1ccc2c(cc1=O)C(NC(C)=O)CCc1cc(OC)c(OC)c(OC)c1-2 (stereo unspecified)
T/C (endpoint: median survival time, dose: 53.0 mg/kg/injection, schedule: Q01DX009 (ip), vehicle: saline, higher = longer survival): 118 % of control
T/C (endpoint: median survival time, dose: 80.0 mg/kg/injection, schedule: Q01DX009 (ip), vehicle: saline, higher = longer survival): 90 % of control
T/C (endpoint: median survival time, dose: 120.0 mg/kg/injection, schedule: Q01DX009 (ip), vehicle: saline, higher = longer survival): 106 % of control
T/C (endpoint: median survival time, dose: 180.0 mg/kg/injection, schedule: Q01DX009 (ip), vehicle: saline, higher = longer survival): 90 % of control

CCCCNCCCNCCCNC(=O)c1csc(-c2csc(CCNC(=O)C(NC(=O)C(C)C(O)C(C)NC(=O)C(NC(=O)c3nc(C(CC(N)=O)NCC(N)C(N)=O)nc(N)c3C)C(OC3OC(CO)C(O)C(O)C3OC3OC(CO)C(O)C(OC(N)=O)C3O)c3cnc[nH]3)C(C)O)n2)n1 (stereo unspecified)
T/C (endpoint: median survival time, dose: 0.31 mg/kg/injection, schedule: Q01DX009 (ip), vehicle: water, higher = longer survival): 86 % of control
T/C (endpoint: median survival time, dose: 0.62 mg/kg/injection, schedule: Q01DX009 (ip), vehicle: water, higher = longer survival): 154 % of control
T/C (endpoint: median survival time, dose: 1.25 mg/kg/injection, schedule: Q01DX009 (ip), vehicle: water, higher = longer survival): 120 % of control
T/C (endpoint: median survival time, dose: 2.5 mg/kg/injection, schedule: Q01DX009 (ip), vehicle: water, higher = longer survival): 122 % of control
T/C (endpoint: median survival time, dose: 5.0 mg/kg/injection, schedule: Q01DX009 (ip), vehicle: water, higher = longer survival): 158 % of control

O=C1OC(C(O)CO)C(O)=C1O (stereo unspecified)
T/C (endpoint: median survival time, dose: 50.0 mg/kg/injection, schedule: Q01DX009 (ip), vehicle: saline, higher = longer survival): 106 % of control
T/C (endpoint: median survival time, dose: 100.0 mg/kg/injection, schedule: Q01DX009 (ip), vehicle: saline, higher = longer survival): 103 % of control
T/C (endpoint: median survival time, dose: 200.0 mg/kg/injection, schedule: Q01DX009 (ip), vehicle: saline, higher = longer survival): 103 % of control
T/C (endpoint: median survival time, dose: 400.0 mg/kg/injection, schedule: Q01DX009 (ip), vehicle: saline, higher = longer survival): 109 % of control
T/C (endpoint: median survival time, dose: 800.0 mg/kg/injection, schedule: Q01DX009 (ip), vehicle: saline, higher = longer survival): 109 % of control

CC1(C)OCC(CO)(Nc2nc(N3CC3)nc(N3CC3)n2)CO1
T/C (endpoint: median survival time, dose: 1.7 mg/kg/injection, schedule: Q01DX009 (ip), vehicle: saline, higher = longer survival): 112 % of control
T/C (endpoint: median survival time, dose: 2.5 mg/kg/injection, schedule: Q01DX009 (ip), vehicle: saline, higher = longer survival): 104 % of control
T/C (endpoint: median survival time, dose: 3.8 mg/kg/injection, schedule: Q01DX009 (ip), vehicle: saline, higher = longer survival): 88 % of control
